Reference: patent US20230092679A1, “MCL-1 INHIBITOR ANTIBODY-DRUG CONJUGATES AND METHODS OF USE” (NOVARTIS AG, priority 2019, published 2023)

Columns and labels:
hel = assay: In vitro ADC activity, AML cell lines, CellTiter-Glo (Example 20); type: cell-based; settings: 5 days
kasumi1 = assay: as above; type: cell-based; settings: kasumi1, 5 days
AMO1 = assay: CellTiter-Glo proliferation assay (Example 6); type: cell-based, human; settings: CD48 Mcl-1 ADCs and payload P1, 5 days
Description: (§1) Mcl-1 ADCs were tested on nine endogenous cancer cell lines and one isogenic cell line engineered to overexpress a target of interest. Six targets were assessed: HER2, BCMA, CD38, CD48, CD79b, and CD33.
(§2) Cell lines • HER2: HCC1954 (ATCC No. CRL-2338 cultured in RPMI-1640+10% FBS) and HCC2218 (ATCC No. CRL-2343 cultured in RPMI-1640+10% FBS). • BCMA: NCI-H929 (ATCC No. CRL-9068 cultured in RPMI-1640+10% FBS+0.05 mM 2-mercaptoethanol). • CD38: A4-Fuk (JCRB No. JCRB0097 cultured in RPMI-1640+10% FBS) and KMS-21 BM (JCRB No. JCRB1185 cultured in RPMI-1640+10% FBS). • CD48: NCI-H929 (ATCC No. CRL-9068 cultured in RPMI-1640+10% FBS+0.05 mM 2-mercaptoethanol), OPM-2 (DSMZ No. ACC-50 cultured in RPMI-1640+10% FBS) and AMO1 (DSMZ No. ACC-538 cultured in RPMI-1640+20% FBS). • CD79b: RS4;11 (ATCC No. CRL-1873 cultured in RPMI-1640+10% FBS). • CD33: MOLM-13 (DSMZ No. ACC-554 cultured in RPMI-1640+10% FBS) and an isogenic cell line, AMO1-CD33 clone D2. AMO1 cell line was transfected to generate a stable AMO1 cell line expressing the exogenous protein of interest, CD33, AMO1-CD33 clone D2 (cultured in RPMI-1640+20% FBS).
(§3) The ability of Mcl-1 ADCs to inhibit cell proliferation and survival was assessed using a Promega CellTiter-Glo® proliferation assay. Cell lines were cultured in media optimal for their growth at 5% CO2, 37° C. in a tissue culture incubator. Prior to seeding for the proliferation assay, the cells were split at least 2 days before the assay to ensure optimal growth density. On the day of seeding, adherent cells were lifted off tissue culture flasks using 0.25% trypsin. Cell viability and cell density were determined using a cell counter (Vi-Cell XR Cell Viability Analyzer, Beckman Coulter). […] Cells were seeded at a density of 1,000 cells per well in 45 μl of standard growth media. Plates were incubated at 5% CO2, 37° C. overnight in a tissue culture incubator. The next day, free Mcl-1 payload (P1), targeting Mcl-1 ADCs, and non-targeting isotype ADCs were prepared at 10× in standard growth media. The prepared drug treatments were then added to the cells resulting in final concentrations of 0.0005-500 nM and a final volume of 50 μl per well. Each drug concentration was tested in quadruplets. Plates were incubated at 5% CO2, 37° C. for 5 days in a tissue culture incubator, after which cell viability was assessed through the addition of 25 μl of CellTiter Glo® (Promega, Cat. No. G7573), a reagent which lyses cells and measures total adenosine triphosphate (ATP) content. Plates were incubated at room temperature for 10 minutes to stabilize luminescent signals prior to reading using a luminescence reader (EnVision Multilabel Plate Reader, PerkinElmer). […]

AMO1-CD33 clone D2 = assay: CellTiter-Glo proliferation assay (Example 6); type: cell-based, human; settings: CD33 Mcl-1 ADCs and payload P1, 5 days
Description: as §1, §2, §3

hel9217 = assay: In vitro ADC activity, AML cell lines, CellTiter-Glo (Example 20); type: cell-based; settings: hel9217, 5 days
f36p = assay: as above; type: cell-based; settings: 5 days

COc1ccccc1-c1nccc(COc2ccccc2C[C@@H](Oc2ncnc3sc(-c4ccc(F)cc4)c(-c4ccc(OCCN5CCN(C)CC5)c(Cl)c4C)c23)C(=O)O)n1 [P1, (2R)-2-[5-[3-chloro-2-methyl-4-[2-(4-methylpiperazin-1-yl)ethoxy]phenyl]-6-(4-fluorophenyl)thieno[2,3-d]pyrimidin-4-yl]oxy-3-[2-[[2-(2-methoxyphenyl)pyrimidin-4-yl]methoxy]phenyl]propanoic acid]
Amax (hel; unit assumed): 4% | GI50 (hel; Homo sapiens, 120 h): 6090 nM | GI50 (kasumi1; Homo sapiens, Kasumi 1, 120 h): 37 nM | Amax (kasumi1; in % (unit assumed)): −87 | Amax AMO1 (AMO1): 19.97 | IC50 (AMO1; Homo sapiens, AMO1, 120 h): 0.038 nM | Amax AMO1-CD33 (AMO1-CD33 clone D2): 103.00 | IC50 (AMO1-CD33 clone D2; Homo sapiens, 120 h): 1.53 nM | GI50 (hel9217; Homo sapiens, HEL 92.1.7, 120 h): 5280 nM | Amax (hel9217; in % (unit assumed)): −1 | GI50 (f36p; 120 h): > 10000 nM | Amax (f36p; unit assumed): 51%
